Measured values: PubChem BioAssay AID2060891 (Molecular Pharmacology Branch, DTP, NCI, 2025)

system: K98450-129-R-PDC complex spheroid growth, percent test/control; assay: Anticancer human tumor K98450-129-R-PDC patient-derived colon adenocarcinoma cell line growth inhibition [RAS]; conditions: second compound 0.316 µM; first compound 0.0316 µM; hits give low values
Method in brief: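 Agents were tested in combination matrices in half-log decrements from a top concentration at or near clinical Cmax (10 microM if undetermined). Targets were multi-cell spheroids of tumour lines plus HUVEC and MSC stromal cells.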
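Further: luminescence used as a proxy for viable cell amount; spheroids exposed to agents for seven days before the viability readout.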

SMILES | viability, T/C
CC(C)n1nc(-c2ccc3oc(N)nc3c2)c2c(N)ncnc21 + C=CC(=O)N1CCN(c2nc(OCC3CCCN3C)nc3c(F)c(-c4nc(N)cc(C)c4C(F)(F)F)c(Cl)cc23)C(C)C1 | 25.7%
CC1(O)CCCC1n1c(=O)c(C(F)F)cc2cnc(NC3CCN(S(C)(=O)=O)CC3)nc21 (stereo unspecified) + C=CC(=O)N1CCN(c2nc(OCC3CCCN3C)nc3c(F)c(-c4nc(N)cc(C)c4C(F)(F)F)c(Cl)cc23)C(C)C1 | 45.2%
CCN1CCN(Cc2ccc(Nc3ncc(F)c(-c4cc(F)c5nc(C)n(C(C)C)c5c4)n3)nc2)CC1 + C=CC(=O)N1CCN(c2nc(OCC3CCCN3C)nc3c(F)c(-c4nc(N)cc(C)c4C(F)(F)F)c(Cl)cc23)C(C)C1 | 33.1%
C[C@@H](NC(=O)c1ncnc(N)c1Cl)c1ncc(C(=O)Nc2cc(C(F)(F)F)c(Cl)cn2)s1 + C=CC(=O)N1CCN(c2nc(OCC3CCCN3C)nc3c(F)c(-c4nc(N)cc(C)c4C(F)(F)F)c(Cl)cc23)C(C)C1 | 44.2%

same assay, conditions: second compound 0.316 µM; first compound 0.1 µM; hits give low values

SMILES | viability, T/C
CC(C)NCC(C(=O)N1CCN(c2ncnc3c2C(C)CC3O)CC1)c1ccc(Cl)cc1 (stereo unspecified) + C=CC(=O)N1CCN(c2nc(OCC3CCCN3C)nc3c(F)c(-c4nc(N)cc(C)c4C(F)(F)F)c(Cl)cc23)C(C)C1 | 42.1%
CC(C)n1nc(-c2ccc3oc(N)nc3c2)c2c(N)ncnc21 + C=CC(=O)N1CCN(c2nc(OCC3CCCN3C)nc3c(F)c(-c4nc(N)cc(C)c4C(F)(F)F)c(Cl)cc23)C(C)C1 | 20.1%
CC1(O)CCCC1n1c(=O)c(C(F)F)cc2cnc(NC3CCN(S(C)(=O)=O)CC3)nc21 (stereo unspecified) + C=CC(=O)N1CCN(c2nc(OCC3CCCN3C)nc3c(F)c(-c4nc(N)cc(C)c4C(F)(F)F)c(Cl)cc23)C(C)C1 | 42.1%
CCN1CCN(Cc2ccc(Nc3ncc(F)c(-c4cc(F)c5nc(C)n(C(C)C)c5c4)n3)nc2)CC1 + C=CC(=O)N1CCN(c2nc(OCC3CCCN3C)nc3c(F)c(-c4nc(N)cc(C)c4C(F)(F)F)c(Cl)cc23)C(C)C1 | 27.9%
C[C@@H](NC(=O)c1ncnc(N)c1Cl)c1ncc(C(=O)Nc2cc(C(F)(F)F)c(Cl)cn2)s1 + C=CC(=O)N1CCN(c2nc(OCC3CCCN3C)nc3c(F)c(-c4nc(N)cc(C)c4C(F)(F)F)c(Cl)cc23)C(C)C1 | 50.4%

same assay, conditions: second compound 0.316 µM; first compound 0.316 µM; hits give low values

SMILES | viability, T/C
CC(C)NCC(C(=O)N1CCN(c2ncnc3c2C(C)CC3O)CC1)c1ccc(Cl)cc1 (stereo unspecified) + C=CC(=O)N1CCN(c2nc(OCC3CCCN3C)nc3c(F)c(-c4nc(N)cc(C)c4C(F)(F)F)c(Cl)cc23)C(C)C1 | 41%
CC1(O)CCCC1n1c(=O)c(C(F)F)cc2cnc(NC3CCN(S(C)(=O)=O)CC3)nc21 (stereo unspecified) + C=CC(=O)N1CCN(c2nc(OCC3CCCN3C)nc3c(F)c(-c4nc(N)cc(C)c4C(F)(F)F)c(Cl)cc23)C(C)C1 | 33%
CCN1CCN(Cc2ccc(Nc3ncc(F)c(-c4cc(F)c5nc(C)n(C(C)C)c5c4)n3)nc2)CC1 + C=CC(=O)N1CCN(c2nc(OCC3CCCN3C)nc3c(F)c(-c4nc(N)cc(C)c4C(F)(F)F)c(Cl)cc23)C(C)C1 | 24.2%
C[C@@H](NC(=O)c1ncnc(N)c1Cl)c1ncc(C(=O)Nc2cc(C(F)(F)F)c(Cl)cn2)s1 + C=CC(=O)N1CCN(c2nc(OCC3CCCN3C)nc3c(F)c(-c4nc(N)cc(C)c4C(F)(F)F)c(Cl)cc23)C(C)C1 | 52.1%

same assay, conditions: second compound 0.316 µM; first compound 1 µM; hits give low values

SMILES | viability, T/C
CC(C)NCC(C(=O)N1CCN(c2ncnc3c2C(C)CC3O)CC1)c1ccc(Cl)cc1 (stereo unspecified) + C=CC(=O)N1CCN(c2nc(OCC3CCCN3C)nc3c(F)c(-c4nc(N)cc(C)c4C(F)(F)F)c(Cl)cc23)C(C)C1 | 43.7%
CC1(O)CCCC1n1c(=O)c(C(F)F)cc2cnc(NC3CCN(S(C)(=O)=O)CC3)nc21 (stereo unspecified) + C=CC(=O)N1CCN(c2nc(OCC3CCCN3C)nc3c(F)c(-c4nc(N)cc(C)c4C(F)(F)F)c(Cl)cc23)C(C)C1 | 27.6%
CCN1CCN(Cc2ccc(Nc3ncc(F)c(-c4cc(F)c5nc(C)n(C(C)C)c5c4)n3)nc2)CC1 + C=CC(=O)N1CCN(c2nc(OCC3CCCN3C)nc3c(F)c(-c4nc(N)cc(C)c4C(F)(F)F)c(Cl)cc23)C(C)C1 | 28.4%
C[C@@H](NC(=O)c1ncnc(N)c1Cl)c1ncc(C(=O)Nc2cc(C(F)(F)F)c(Cl)cn2)s1 + C=CC(=O)N1CCN(c2nc(OCC3CCCN3C)nc3c(F)c(-c4nc(N)cc(C)c4C(F)(F)F)c(Cl)cc23)C(C)C1 | 49.9%

same assay, conditions: second compound 0.316 µM; first compound 3.16 µM; hits give low values

SMILES | viability, T/C
CC(C)NCC(C(=O)N1CCN(c2ncnc3c2C(C)CC3O)CC1)c1ccc(Cl)cc1 (stereo unspecified) + C=CC(=O)N1CCN(c2nc(OCC3CCCN3C)nc3c(F)c(-c4nc(N)cc(C)c4C(F)(F)F)c(Cl)cc23)C(C)C1 | 42.6%
CC1(O)CCCC1n1c(=O)c(C(F)F)cc2cnc(NC3CCN(S(C)(=O)=O)CC3)nc21 (stereo unspecified) + C=CC(=O)N1CCN(c2nc(OCC3CCCN3C)nc3c(F)c(-c4nc(N)cc(C)c4C(F)(F)F)c(Cl)cc23)C(C)C1 | 21.7%
C[C@@H](NC(=O)c1ncnc(N)c1Cl)c1ncc(C(=O)Nc2cc(C(F)(F)F)c(Cl)cn2)s1 + C=CC(=O)N1CCN(c2nc(OCC3CCCN3C)nc3c(F)c(-c4nc(N)cc(C)c4C(F)(F)F)c(Cl)cc23)C(C)C1 | 57%

same assay, conditions: second compound 0.316 µM; first compound 10 µM; hits give low values

SMILES | viability, T/C
CC(C)NCC(C(=O)N1CCN(c2ncnc3c2C(C)CC3O)CC1)c1ccc(Cl)cc1 (stereo unspecified) + C=CC(=O)N1CCN(c2nc(OCC3CCCN3C)nc3c(F)c(-c4nc(N)cc(C)c4C(F)(F)F)c(Cl)cc23)C(C)C1 | 36.4%
CC1(O)CCCC1n1c(=O)c(C(F)F)cc2cnc(NC3CCN(S(C)(=O)=O)CC3)nc21 (stereo unspecified) + C=CC(=O)N1CCN(c2nc(OCC3CCCN3C)nc3c(F)c(-c4nc(N)cc(C)c4C(F)(F)F)c(Cl)cc23)C(C)C1 | 18.9%
C[C@@H](NC(=O)c1ncnc(N)c1Cl)c1ncc(C(=O)Nc2cc(C(F)(F)F)c(Cl)cn2)s1 + C=CC(=O)N1CCN(c2nc(OCC3CCCN3C)nc3c(F)c(-c4nc(N)cc(C)c4C(F)(F)F)c(Cl)cc23)C(C)C1 | 46.1%

same assay, conditions: second compound 1 µM; first compound 0.000316 µM; hits give low values

SMILES | viability, T/C
CC(C)n1nc(-c2ccc3oc(N)nc3c2)c2c(N)ncnc21 + C=CC(=O)N1CCN(c2nc(OCC3CCCN3C)nc3c(F)c(-c4nc(N)cc(C)c4C(F)(F)F)c(Cl)cc23)C(C)C1 | 29.1%

same assay, conditions: second compound 1 µM; first compound 0.001 µM; hits give low values

SMILES | viability, T/C
CC(C)n1nc(-c2ccc3oc(N)nc3c2)c2c(N)ncnc21 + C=CC(=O)N1CCN(c2nc(OCC3CCCN3C)nc3c(F)c(-c4nc(N)cc(C)c4C(F)(F)F)c(Cl)cc23)C(C)C1 | 27.5%

same assay, conditions: second compound 1 µM; first compound 0.00316 µM; hits give low values

SMILES | viability, T/C
CC(C)n1nc(-c2ccc3oc(N)nc3c2)c2c(N)ncnc21 + C=CC(=O)N1CCN(c2nc(OCC3CCCN3C)nc3c(F)c(-c4nc(N)cc(C)c4C(F)(F)F)c(Cl)cc23)C(C)C1 | 33.5%
